From US20090304632A1, “HETEROCYCLIC NF-kB INHIBITORS” (priority 2007, published 2009) come the findings set out here.

Where two headings read alike, the source gives them in different places. Where only a bound is given, the exact number is not on record here.

One series has as its system NF-κB. Description: NF-κB inflammation assay (PRINCESS NINA Instant Assay, A549-NF-κB-SEAP reporter cells). As to conditions: for EC50: A549-NF-κB-SEAP reporter cells stimulated with 2 ng/ml TNF-α, read-out: Biological activity (EC50, NF-κB inflammation assay). It is filed as cell-based.
The subject of the next series is mouse splenocytes. As to the kind of experiment: Cytokine production of mouse splenocytes stimulated with CD3/CD28. It is filed as cell-based. As to conditions: 10 μM.
Another series concerns influenza virus. As to the kind of experiment: Antiviral combination with interferon-α.
A further series deals with influenza strain H7N7. The series is classed as in vivo, mouse.
Another series concerns influenza strain H5N1. The series is classed as in vivo, mouse.
The test system of the next series is human lymphocyte. As to the kind of experiment: T-lymphocyte proliferation assay (stimulated PBMC, BrdU). It is filed as cell-based.
In a further series the test system is human PBMCs. Description: Cytokine production of human PBMCs. The series is classed as cell-based. The settings on record: for EC50: Homo sapiens, PBMC, 48 h, 48 hours.
Series [1] has as its system bird flu virus H5N1 (strain MB1). It is filed as in vivo, mouse. The settings on record: H5N1 infected mice, daily 15 mg/kg i.p. for two days.
In the next series the test system is mouse T-cell. Description: Mouse T-cell proliferation. It is filed as cell-based.
Series [2] concerns Influenza A virus H5N1-strain. The series is classed as cell-based. The settings on record: 5 μM, infected A549 cells.
A further series has as its system hematological cell lines. As to the kind of experiment: In-vitro antitumor activity in human tumor cell lines (monolayer assay, propidium iodide). It is filed as cell-based.
The test system of series [3] is Fowl Plaque Virus, H7N7-strain. It is filed as cell-based, Influenza A virus. The settings on record: 5 μM, infected A549 cells.
The next series deals with A549 cells. As to the kind of experiment: Determination of cell viability (MTT staining). It is filed as cell-based. On the procedure: Cell lines (e.g. A549) incubated with compounds of the invention were assessed on cell viability by means of MTT staining.

As a reminder, the EC50 is the concentration needed to bring the measured effect to its halfway point. As for `COc1cc(N2CCC(c3nc(C(=O)Nc4nc5ccc(C(=O)c6ccccc6)cc5[nH]4)cs3)CC2)nc(OC)n1` [Compound 1, N-(6-benzoyl-1H-benzo[d]imidazol-2-yl)-2-(1-(2,6-dimethoxypyrimidin-4-yl)piperidin-4-yl)thiazole-4-carboxamide], in the series on NF-κB, the EC50 was < 10 µM.
For `O=C(c1ccccc1)c1ccc2nc(NC(=O)c3csc(C4CCN(c5ncnc6nc[nH]c56)CC4)n3)[nH]c2c1` [Compound 2, 2-(1-(7H-purin-6-yl)piperidin-4-yl)-N-(6-benzoyl-1H-benzo[d]imidazol-2-yl)thiazole-4-carboxamide], the EC50 in the series with NF-κB was < 10 µM.
Still for that read-out and setting: the result for `N#Cc1ccnc(N2CCC(c3nc(C(=O)Nc4nc5ccc(C(=O)c6ccccc6)cc5[nH]4)cs3)CC2)c1` [Compound 3, N-(6-benzoyl-1H-benzo[d]imidazol-2-yl)-2-(1-(4-cyanopyridin-2-yl)piperidin-4-yl)thiazole-4-carboxamide] reads 30 to 100 µM.
By IC50 is commonly meant the concentration at which inhibition is half-maximal. Consider `O=C(c1ccccc1)c1ccc2nc(NC(=O)c3csc(C4CCN(c5ncnc6ccsc56)CC4)n3)[nH]c2c1` [Compound 4, N-(6-benzoyl-1H-benzo[d]imidazol-2-yl)-2-(1-(thieno[3,2-d]pyrimidin-4-yl)piperidin-4-yl)thiazole-4-carboxamide], for which, in the series with mouse splenocytes (after 24 hours), the “cytokine production, all measured cytokines” value is given as “completely inhibited”. For the same molecule, the “reduction of secretion of most cytokines” value in the series on mouse splenocytes (after 48 hours) is reported as “more than 90 % of the DMSO control”. Further, in the series with influenza virus (combination with INFα), the “synergism in anti-viral efficacy and toxicity antagonism of combination with INFα versus IFNα combination with ribavirin” value is recorded as “stronger synergism”. Moreover, in the series on influenza virus (combination with interferon-α), the “antiviral effects in combination with INF-α” value is “synergistic antiviral effects”. In addition, the “protection of infected mice (survival)” value in the series on influenza strain H7N7 (LD50 H7N7, 15 mg/kg daily i.p. day 0 to day 8, end day 14, p<0.05) is given as “complete protection”; in the series on influenza strain H7N7 (LD50 H7N7, daily i.v. day 0 to day 4, doses equal or higher 5 mg/kg, end day 14, p<0.05), “significant protection”; in the series on influenza strain H5N1 (LD50 H5N1, treatment from day 4 to day 10, 7.5 mg/kg b.id. and 15 mg/kg daily i.p., end day 14, p=0.05) it was “significant protection”; in the series with influenza strain H5N1 (LD50 H5N1, two times 7.5 mg/kg daily i.p. day 0 to day 10, end day 14, p<0.05), “significant protection”. In addition, in the series with human lymphocyte, the human lymphocyte proliferation result is recorded as “inhibits”. Also, the half-maximal effective concentration (EC50) in the series with human PBMCs (LPS stimulation, read-out: IL-6 secretion EC50) was 0.6 µM; in the series on human PBMCs (LPS stimulation, read-out: TNF-alpha secretion EC50), 12.6 µM; in the series with human PBMCs (PHA stimulation, read-out: IL-6 secretion EC50) it was 0.2 µM; in the series on human PBMCs (PHA stimulation, read-out: INF-gamma secretion EC50), 9 µM; in the series with human PBMCs (PHA stimulation, read-out: TNF-alpha secretion EC50), 7.9 µM; with NF-κB, < 10 µM. In addition, in the series on human PBMCs (stimulated with CL075), the “secretion of cytokines like IL-1beta, IL-6, IL-8, IFN-gamma, and TNF-alpha” value is reported as “blocked”. For the same molecule, the “secretion of cytokines like IL-6 and IL-8” value in the series with human PBMCs (stimulated with IL-1beta) and in the series on human PBMCs (stimulated with ODN1668) was “blocked” each time. The “secretion of cytokines like IL-8, IL-1beta, INF-gamma, TNF-alpha, IL-10, and IL-6” value in the series on human PBMCs (stimulated with LPS) was “blocked”. In addition, the “secretion of cytokines like IL-8 and IFN-gamma” value with human PBMCs (stimulated with ODN2216) was “blocked”. Moreover, the “secretion of cytokines like IL-1beta, IL-6, IL-2, IL-8, IL-10, IL-12p70, INF-gamma, and TNF-alpha” value in the series on human PBMCs (stimulated with PHA) is reported as “blocked”. For the same molecule, in the series on human PBMCs (stimulated with TNF-alpha), the “secretion of cytokines like IL-1beta, IL-6, and IL-8” value is on record as “blocked”. Also, the “expression of H5N1 specific mRNA in the lung” value in [1] was “reduced expression”. Moreover, in series [1], the “transcription of IL-6 and IP-10 genes in the lung” value is “reduced transcription”. Moreover, the “mouse T-cell proliferation” value in the series on mouse T-cell is given as “inhibits”. For the same molecule, the “reduction of virus titer” value is listed as 4 log units in [2] and 5 log units in [3]. In addition, the “multiple myeloma derived cell lines above average sensitive” value with hematological cell lines (cell lines derived from multiple myelomas) is 4 out of 5. For the same molecule, in the series with hematological cell lines (panel of hematological cell lines), the “score of tumor sensitivity” value was “excellent score of tumor sensitivity”. The IC50 in the series with NF-κB (read-out: NF-κB reporter gene assay IC50) was ~0.1 µM. Moreover, in the series on A549 cells, the cytotoxicity result is “not cytotoxic”. In addition, the “cell viability versus DMSO treated and untreated cells” value with A549 cells (5 μM, absence of virus, MTT staining, 96 hours) is “the same”.
With `O=C(c1ccccc1)c1ccc2nc(NC(=O)c3csc(C4CCN(c5cc(C(F)(F)F)ncn5)CC4)n3)[nH]c2c1` [Compound 5, N-(6-benzoyl-1H-benzo[d]imidazol-2-yl)-2-(1-(6-(trifluoromethyl)pyrimidin-4-yl)piperidin-4-yl)thiazole-4-carboxamide], in the series with NF-κB, the EC50 was in the range of 10 to 30 µM.
Turning to `COc1cc2c(N3CCC(c4nc(C(=O)Nc5nc6cc(C(=O)c7ccccc7)ccc6[nH]5)cs4)CC3)ncnc2cc1OCCCN1CCN(C)CC1` [Compound 6, N-(5-benzoyl-1H-benzo[d]imidazol-2-yl)-2-(1-(6-methoxy-7-(3-(4-methylpiperazin-1-yl)propoxy)quinazolin-4-yl)piperidin-4-yl)thiazole-4-carboxamide], in the series on NF-κB, the EC50 is < 10 µM.
With `O=CN1CCC(c2nc(C(=O)Nc3nc4cc(C(=O)c5ccccc5)ccc4[nH]3)cs2)CC1` [Compound 7, N-(5-benzoyl-1H-benzo[d]imidazol-2-yl)-2-(1-formylpiperidin-4-yl)thiazole-4-carboxamide], the EC50 in the series with NF-κB was < 10 µM.
On to `COC(=O)c1cn2ncnc(N3CCC(c4nc(C(=O)Nc5nc6cc(C(=O)c7ccccc7)ccc6[nH]5)cs4)CC3)c2c1C` [Compound 8, Methyl 4-(4-(4-(5-benzoyl-1H-benzo[d]imidazol-2-ylcarbamoyl)thiazol-2-yl)piperidin-1-yl)-5-methylpyrrolo[1,2-f][1,2,4]triazine-6-carboxylate], for which the EC50 with NF-κB is 30 to 100 µM.
With `Cc1cc2nccc(N3CCC(c4nc(C(=O)Nc5nc6cc(C(=O)c7ccccc7)ccc6[nH]5)cs4)CC3)n2n1` [Compound 9, N-(5-benzoyl-1H-benzo[d]imidazol-2-yl)-2-(1-(2-methylpyrazolo[1,5-a]pyrimidin-7-yl)piperidin-4-yl)thiazole-4-carboxamide], the EC50 with NF-κB is < 10 µM.
Regarding `O=C(c1ccccc1)c1ccc2[nH]c(NC(=O)c3csc(C4CCN(c5ccnc6ncnn56)CC4)n3)nc2c1` [Compound 10, 2-(1-([1,2,4]triazolo[1,5-a]pyrimidin-7-yl)piperidin-4-yl)-N-(5-benzoyl-1H-benzo[d]imidazol-2-yl)thiazole-4-carboxamide], the EC50 with NF-κB is < 10 µM.
Turning to `COC(=O)c1nc2nccc(N3CCC(c4nc(C(=O)Nc5nc6cc(C(=O)c7ccccc7)ccc6[nH]5)cs4)CC3)n2n1` [Compound 11, Methyl 7-(4-(4-(5-benzoyl-1H-benzo[d]imidazol-2-ylcarbamoyl)thiazol-2-yl)piperidin-1-yl)-[1,2,4]triazolo[1,5-a]pyrimidine-2-carboxylate], the EC50 in the series on NF-κB is < 10 µM.
`O=C(c1ccccc1)c1ccc2nc(NC(=O)c3csc(C4CCN(C(=O)Nc5cc(Cl)nc(Cl)c5)CC4)n3)[nH]c2c1` [Compound 12, N-(6-benzoyl-1H-benzo[d]imidazol-2-yl)-2-(1-(2,6-dichloropyridin-4-ylcarbamoyl)piperidin-4-yl)thiazole-4-carboxamide]: the EC50 in the series with NF-κB is < 10 µM.
Consider `COc1nc(OC)nc(N2CCC(c3nc(C(=O)Nc4nc5cc(C(=O)c6ccccc6)ccc5[nH]4)cs3)CC2)n1` [Compound 13, N-(5-benzoyl-1H-benzo[d]imidazol-2-yl)-2-(1-(4,6-dimethoxy-1,3,5-triazin-2-yl)piperidin-4-yl)thiazole-4-carboxamide], for which the EC50 in the series on NF-κB is < 10 µM.
For `COc1cc2ncnc(N3CCC(c4nc(C(=O)Nc5nc6cc(C(=O)c7ccccc7)ccc6[nH]5)cs4)CC3)c2cc1OC` [Compound 14, N-(5-benzoyl-1H-benzo[d]imidazol-2-yl)-2-(1-(6,7-dimethoxyquinazolin-4-yl)piperidin-4-yl)thiazole-4-carboxamide], in the series on NF-κB, the EC50 was < 10 µM.
Regarding `O=C(c1ccccc1)c1ccc2[nH]c(NC(=O)c3csc(C4CCN(c5ccncc5[N+](=O)[O-])CC4)n3)nc2c1` [Compound 15, N-(5-benzoyl-1H-benzo[d]imidazol-2-yl)-2-(1-(3-nitropyridin-4-yl)piperidin-4-yl)thiazole-4-carboxamide], the EC50 in the series on NF-κB is < 10 µM.
Regarding `O=C(c1ccccc1)c1ccc2[nH]c(NC(=O)c3csc(C4CCN(C(=O)c5ccccc5OC(F)(F)F)CC4)n3)nc2c1` [Compound 16, N-(5-benzoyl-1H-benzo[d]imidazol-2-yl)-2-(1-(2-(trifluoromethoxy)benzoyl)piperidin-4-yl)thiazole-4-carboxamide], the EC50 in the series with NF-κB is < 10 µM.
For `Cc1cc2nnc(C(=O)N3CCC(c4nc(C(=O)Nc5nc6cc(C(=O)c7ccccc7)ccc6[nH]5)cs4)CC3)c(C)n2n1` [Compound 17, N-(5-benzoyl-1H-benzo[d]imidazol-2-yl)-2-(1-(4,7-dimethylpyrazolo[5,1-c][1,2,4]triazine-3-carbonyl)piperidin-4-yl)thiazole-4-carboxamide], the concentration giving a half-maximal response (EC50) in the series on NF-κB was < 10 µM.
